Experimental data published in ChEMBL document CHEMBL4507299, “Data for DCP probe PF-04554878” (2021).

Legend:
[1] = target: Proto-oncogene tyrosine-protein kinase Src (Homo sapiens, UniProt P12931); test: SRC Invitrogen kinase activity assay
[2] = target: Casein kinase II subunit alpha (Homo sapiens) (UniProt P68400); test: CK2 Invitrogen kinase activity assay; settings: Compound concentration 1.0 uM
[3] = target: Casein kinase I isoform delta (Homo sapiens) (UniProt P48730); test: CKLdelta Invitrogen kinase activity assay; settings: Compound concentration 1.0 uM
[4] = target: Protein kinase C beta type (Homo sapiens) (UniProt P05771); test: PKCbeta II Invitrogen kinase activity assay; settings: Compound concentration 1.0 uM
[5] = target: T1, Tyrosine-protein kinase JAK3 (Homo sapiens) (UniProt P52333); settings: Compound concentration 1.0 uM
T1 sequence (whole entry): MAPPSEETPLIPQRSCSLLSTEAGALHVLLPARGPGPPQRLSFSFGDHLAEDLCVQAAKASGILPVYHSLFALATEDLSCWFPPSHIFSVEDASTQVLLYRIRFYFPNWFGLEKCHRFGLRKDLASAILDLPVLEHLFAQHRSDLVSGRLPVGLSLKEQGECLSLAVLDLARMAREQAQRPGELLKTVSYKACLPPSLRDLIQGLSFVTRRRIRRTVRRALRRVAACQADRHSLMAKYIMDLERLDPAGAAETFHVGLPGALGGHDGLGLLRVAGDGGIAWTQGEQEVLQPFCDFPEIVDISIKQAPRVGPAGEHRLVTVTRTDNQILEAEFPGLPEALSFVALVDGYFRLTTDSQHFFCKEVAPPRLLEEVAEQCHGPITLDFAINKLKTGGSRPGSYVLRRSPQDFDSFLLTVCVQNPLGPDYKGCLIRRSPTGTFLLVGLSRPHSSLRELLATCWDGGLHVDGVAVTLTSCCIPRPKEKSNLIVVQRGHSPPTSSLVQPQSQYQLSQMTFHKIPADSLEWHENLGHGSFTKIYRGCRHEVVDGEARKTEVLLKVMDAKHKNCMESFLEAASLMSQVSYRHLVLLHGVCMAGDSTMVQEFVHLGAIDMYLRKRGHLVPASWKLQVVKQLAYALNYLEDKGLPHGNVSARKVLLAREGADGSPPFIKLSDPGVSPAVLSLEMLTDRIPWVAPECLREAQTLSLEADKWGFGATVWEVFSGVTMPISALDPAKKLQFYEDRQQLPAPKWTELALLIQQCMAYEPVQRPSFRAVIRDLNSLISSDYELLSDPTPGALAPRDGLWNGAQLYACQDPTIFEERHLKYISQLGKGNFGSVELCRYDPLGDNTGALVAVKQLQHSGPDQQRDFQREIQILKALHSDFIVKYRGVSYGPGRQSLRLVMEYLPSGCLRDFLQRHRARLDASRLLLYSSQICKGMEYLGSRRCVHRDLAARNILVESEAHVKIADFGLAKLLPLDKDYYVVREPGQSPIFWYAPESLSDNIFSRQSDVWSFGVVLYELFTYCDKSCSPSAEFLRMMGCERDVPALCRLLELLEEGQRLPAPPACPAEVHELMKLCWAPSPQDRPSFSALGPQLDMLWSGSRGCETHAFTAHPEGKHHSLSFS

[6] = target: cAMP-dependent protein kinase catalytic subunit alpha (Homo sapiens) (UniProt P17612); test: PKACa Invitrogen kinase activity assay; settings: Compound concentration 1.0 uM
[7] = target: Serine/threonine-protein kinase pim-2 (Homo sapiens) (UniProt Q9P1W9); test: PIM2 Invitrogen kinase activity assay; settings: Compound concentration 1.0 uM
[8] = target: NEK kinase (Homo sapiens) (UniProt P51955+Q9HC98+Q8TDX7+Q6P3R8+Q8TD19+Q8NG66+P51956+P51957+Q96PY6+Q86SG6+Q6ZWH5); test: NEK Invitrogen kinase activity assay; format: protein assay; settings: Compound concentration 1.0 uM
[9] = target: Insulin receptor (Homo sapiens) (UniProt P06213); test: INSR Invitrogen kinase activity assay; settings: Compound concentration 1.0 uM
[10] = target: Cyclin-dependent kinase 2/cyclin A (Homo sapiens, UniProt P24941); test: (§1) CDK2/cyclinA Invitrogen kinase activity assay; format: protein-complex assay
[11] = target: Cyclin-dependent kinase 2/cyclin A (Homo sapiens) (UniProt P24941+P20248+P78396); test: as §1; format: protein-complex assay; settings: Compound concentration 1.0 uM
[12] = target: Hepatocyte growth factor receptor (Homo sapiens) (UniProt P08581); test: MET Invitrogen kinase activity assay; settings: Compound concentration 1.0 uM
[13] = target: T2, Inhibitor of nuclear factor kappa-B kinase subunit epsilon (Homo sapiens) (UniProt Q14164); test: IKKi Invitrogen kinase activity assay; settings: Compound concentration 1.0 uM
T2 sequence (whole entry): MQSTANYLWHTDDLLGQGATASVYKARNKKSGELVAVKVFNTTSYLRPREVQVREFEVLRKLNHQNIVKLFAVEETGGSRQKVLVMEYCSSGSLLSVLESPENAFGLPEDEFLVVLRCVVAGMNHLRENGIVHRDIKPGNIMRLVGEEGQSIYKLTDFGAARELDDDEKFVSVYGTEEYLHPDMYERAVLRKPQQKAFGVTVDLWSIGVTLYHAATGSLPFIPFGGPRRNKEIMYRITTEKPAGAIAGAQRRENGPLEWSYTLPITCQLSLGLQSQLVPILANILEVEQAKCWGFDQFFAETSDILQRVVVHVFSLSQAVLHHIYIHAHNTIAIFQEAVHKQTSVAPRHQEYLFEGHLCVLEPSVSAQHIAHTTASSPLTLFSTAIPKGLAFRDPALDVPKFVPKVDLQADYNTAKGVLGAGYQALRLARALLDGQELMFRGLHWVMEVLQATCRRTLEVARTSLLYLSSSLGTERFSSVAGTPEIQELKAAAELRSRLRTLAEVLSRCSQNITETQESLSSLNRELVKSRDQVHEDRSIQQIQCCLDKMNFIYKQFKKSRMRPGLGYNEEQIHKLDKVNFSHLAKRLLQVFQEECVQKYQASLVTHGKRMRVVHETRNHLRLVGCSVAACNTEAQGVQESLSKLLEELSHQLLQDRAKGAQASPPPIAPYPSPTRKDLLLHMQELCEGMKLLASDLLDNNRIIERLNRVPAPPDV

[14] = target: Mitogen-activated protein kinase 1 (Homo sapiens) (UniProt P28482); test: MAPK1/ERK2 Invitrogen kinase activity assay; settings: Compound concentration 1.0 uM
[15] = target: Tyrosine-protein kinase Lck (Homo sapiens) (UniProt P06239); test: LCK Invitrogen kinase activity assay; settings: Compound concentration 1.0 uM
[16] = target: CDK6/cyclin D3 (Homo sapiens) (UniProt P30281+Q00534); test: CDK6/cyclinD3 Invitrogen kinase activity assay; format: protein-complex assay; settings: Compound concentration 1.0 uM
[17] = target: Sodium-dependent dopamine transporter (Homo sapiens) (UniProt Q01959); settings: Compound concentration 10.0 uM
[18] = target: Serine/threonine-protein kinase PAK 4 (Homo sapiens) (UniProt O96013); test: PAK4 Invitrogen kinase activity assay; settings: Compound concentration 1.0 uM
[19] = target: Ephrin type-A receptor 2 (Homo sapiens) (UniProt P29317); test: ECK Invitrogen kinase activity assay; settings: Compound concentration 1.0 uM
[20] = target: D(1A) dopamine receptor (Homo sapiens, UniProt P21728); settings: Compound concentration 10.0 uM
[21] = target: D(2) dopamine receptor (Homo sapiens) (UniProt P14416); settings: Compound concentration 10.0 uM
[22] = target: 5-hydroxytryptamine receptor 1D (Homo sapiens) (UniProt P28221); settings: Compound concentration 10.0 uM

Sequence of Proto-oncogene tyrosine-protein kinase Src (P12931 2-536 limits assumed): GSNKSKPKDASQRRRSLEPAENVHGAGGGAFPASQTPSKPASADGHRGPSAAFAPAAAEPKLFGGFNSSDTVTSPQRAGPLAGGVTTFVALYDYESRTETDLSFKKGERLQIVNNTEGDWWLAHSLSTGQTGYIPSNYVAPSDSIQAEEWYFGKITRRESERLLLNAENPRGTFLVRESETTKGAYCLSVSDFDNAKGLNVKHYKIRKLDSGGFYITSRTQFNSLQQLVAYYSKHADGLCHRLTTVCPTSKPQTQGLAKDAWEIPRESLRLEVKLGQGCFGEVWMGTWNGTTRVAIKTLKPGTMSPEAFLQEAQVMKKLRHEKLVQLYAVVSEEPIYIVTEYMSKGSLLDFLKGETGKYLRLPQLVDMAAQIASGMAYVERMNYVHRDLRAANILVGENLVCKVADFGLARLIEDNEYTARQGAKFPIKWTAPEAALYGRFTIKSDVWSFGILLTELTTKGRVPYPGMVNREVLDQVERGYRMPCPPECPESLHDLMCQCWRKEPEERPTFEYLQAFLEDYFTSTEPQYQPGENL
Sequence of Protein kinase C beta type (Homo sapiens) (P05771 2-671 limits assumed): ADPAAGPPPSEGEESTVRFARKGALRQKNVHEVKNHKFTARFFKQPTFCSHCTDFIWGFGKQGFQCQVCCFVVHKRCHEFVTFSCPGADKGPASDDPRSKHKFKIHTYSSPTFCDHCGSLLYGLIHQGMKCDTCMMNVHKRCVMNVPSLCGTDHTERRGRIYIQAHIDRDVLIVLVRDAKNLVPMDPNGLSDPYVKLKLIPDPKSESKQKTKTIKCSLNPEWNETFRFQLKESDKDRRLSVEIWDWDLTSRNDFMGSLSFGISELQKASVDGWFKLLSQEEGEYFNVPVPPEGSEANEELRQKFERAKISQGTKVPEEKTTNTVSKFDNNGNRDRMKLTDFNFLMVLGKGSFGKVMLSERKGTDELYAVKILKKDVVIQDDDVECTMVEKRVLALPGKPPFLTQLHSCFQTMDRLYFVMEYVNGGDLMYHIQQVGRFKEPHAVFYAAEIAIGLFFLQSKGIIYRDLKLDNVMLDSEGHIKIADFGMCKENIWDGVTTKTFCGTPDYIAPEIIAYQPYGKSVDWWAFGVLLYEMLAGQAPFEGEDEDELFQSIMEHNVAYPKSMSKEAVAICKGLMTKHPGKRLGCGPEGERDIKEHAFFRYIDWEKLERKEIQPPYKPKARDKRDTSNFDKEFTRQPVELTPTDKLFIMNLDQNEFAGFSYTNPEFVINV
Sequence of Ephrin type-A receptor 2 (Homo sapiens) (P29317 whole entry): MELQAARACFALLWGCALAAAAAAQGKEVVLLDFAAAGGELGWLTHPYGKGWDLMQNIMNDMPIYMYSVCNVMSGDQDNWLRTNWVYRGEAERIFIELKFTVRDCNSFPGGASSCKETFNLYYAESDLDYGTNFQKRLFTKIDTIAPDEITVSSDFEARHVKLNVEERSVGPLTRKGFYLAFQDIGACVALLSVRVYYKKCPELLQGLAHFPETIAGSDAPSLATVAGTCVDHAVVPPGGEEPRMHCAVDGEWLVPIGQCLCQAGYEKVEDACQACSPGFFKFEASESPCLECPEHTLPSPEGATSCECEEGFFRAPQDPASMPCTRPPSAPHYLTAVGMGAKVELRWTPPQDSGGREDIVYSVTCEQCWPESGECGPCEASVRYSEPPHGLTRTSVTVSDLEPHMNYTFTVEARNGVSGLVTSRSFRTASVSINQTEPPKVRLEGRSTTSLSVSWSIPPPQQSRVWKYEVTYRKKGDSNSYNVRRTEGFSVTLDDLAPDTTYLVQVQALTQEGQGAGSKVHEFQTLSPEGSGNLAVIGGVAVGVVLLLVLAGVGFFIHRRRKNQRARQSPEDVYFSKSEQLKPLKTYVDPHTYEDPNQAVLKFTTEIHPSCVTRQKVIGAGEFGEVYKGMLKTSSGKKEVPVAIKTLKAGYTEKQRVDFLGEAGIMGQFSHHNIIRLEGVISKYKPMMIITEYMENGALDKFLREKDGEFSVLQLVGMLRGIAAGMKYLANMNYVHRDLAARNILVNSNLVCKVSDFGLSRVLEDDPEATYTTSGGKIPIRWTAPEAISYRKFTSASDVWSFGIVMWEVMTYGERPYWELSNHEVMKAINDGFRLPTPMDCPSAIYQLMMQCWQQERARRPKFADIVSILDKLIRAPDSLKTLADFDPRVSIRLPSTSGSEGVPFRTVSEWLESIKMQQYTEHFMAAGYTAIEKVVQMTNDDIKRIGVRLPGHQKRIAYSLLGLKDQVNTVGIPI
Sequence of Serine/threonine-protein kinase PAK 4 (Homo sapiens) (O96013 whole entry, looked up): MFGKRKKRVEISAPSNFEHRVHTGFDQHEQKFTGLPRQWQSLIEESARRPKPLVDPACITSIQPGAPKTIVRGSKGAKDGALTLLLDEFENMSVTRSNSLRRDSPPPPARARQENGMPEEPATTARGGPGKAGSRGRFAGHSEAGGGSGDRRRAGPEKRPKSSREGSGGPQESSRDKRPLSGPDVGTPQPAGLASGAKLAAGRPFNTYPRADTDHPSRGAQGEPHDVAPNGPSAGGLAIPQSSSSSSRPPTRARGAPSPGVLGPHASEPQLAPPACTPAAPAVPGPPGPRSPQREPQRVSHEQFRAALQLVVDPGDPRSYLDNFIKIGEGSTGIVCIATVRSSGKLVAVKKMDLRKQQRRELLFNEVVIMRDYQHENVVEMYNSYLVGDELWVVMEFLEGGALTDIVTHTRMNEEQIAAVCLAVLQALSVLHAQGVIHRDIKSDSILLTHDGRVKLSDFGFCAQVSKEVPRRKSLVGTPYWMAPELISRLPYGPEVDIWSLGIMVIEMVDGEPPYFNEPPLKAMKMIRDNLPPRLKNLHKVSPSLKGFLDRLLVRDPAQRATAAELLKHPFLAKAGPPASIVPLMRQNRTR
Sequence of Hepatocyte growth factor receptor (Homo sapiens) (P08581 whole entry): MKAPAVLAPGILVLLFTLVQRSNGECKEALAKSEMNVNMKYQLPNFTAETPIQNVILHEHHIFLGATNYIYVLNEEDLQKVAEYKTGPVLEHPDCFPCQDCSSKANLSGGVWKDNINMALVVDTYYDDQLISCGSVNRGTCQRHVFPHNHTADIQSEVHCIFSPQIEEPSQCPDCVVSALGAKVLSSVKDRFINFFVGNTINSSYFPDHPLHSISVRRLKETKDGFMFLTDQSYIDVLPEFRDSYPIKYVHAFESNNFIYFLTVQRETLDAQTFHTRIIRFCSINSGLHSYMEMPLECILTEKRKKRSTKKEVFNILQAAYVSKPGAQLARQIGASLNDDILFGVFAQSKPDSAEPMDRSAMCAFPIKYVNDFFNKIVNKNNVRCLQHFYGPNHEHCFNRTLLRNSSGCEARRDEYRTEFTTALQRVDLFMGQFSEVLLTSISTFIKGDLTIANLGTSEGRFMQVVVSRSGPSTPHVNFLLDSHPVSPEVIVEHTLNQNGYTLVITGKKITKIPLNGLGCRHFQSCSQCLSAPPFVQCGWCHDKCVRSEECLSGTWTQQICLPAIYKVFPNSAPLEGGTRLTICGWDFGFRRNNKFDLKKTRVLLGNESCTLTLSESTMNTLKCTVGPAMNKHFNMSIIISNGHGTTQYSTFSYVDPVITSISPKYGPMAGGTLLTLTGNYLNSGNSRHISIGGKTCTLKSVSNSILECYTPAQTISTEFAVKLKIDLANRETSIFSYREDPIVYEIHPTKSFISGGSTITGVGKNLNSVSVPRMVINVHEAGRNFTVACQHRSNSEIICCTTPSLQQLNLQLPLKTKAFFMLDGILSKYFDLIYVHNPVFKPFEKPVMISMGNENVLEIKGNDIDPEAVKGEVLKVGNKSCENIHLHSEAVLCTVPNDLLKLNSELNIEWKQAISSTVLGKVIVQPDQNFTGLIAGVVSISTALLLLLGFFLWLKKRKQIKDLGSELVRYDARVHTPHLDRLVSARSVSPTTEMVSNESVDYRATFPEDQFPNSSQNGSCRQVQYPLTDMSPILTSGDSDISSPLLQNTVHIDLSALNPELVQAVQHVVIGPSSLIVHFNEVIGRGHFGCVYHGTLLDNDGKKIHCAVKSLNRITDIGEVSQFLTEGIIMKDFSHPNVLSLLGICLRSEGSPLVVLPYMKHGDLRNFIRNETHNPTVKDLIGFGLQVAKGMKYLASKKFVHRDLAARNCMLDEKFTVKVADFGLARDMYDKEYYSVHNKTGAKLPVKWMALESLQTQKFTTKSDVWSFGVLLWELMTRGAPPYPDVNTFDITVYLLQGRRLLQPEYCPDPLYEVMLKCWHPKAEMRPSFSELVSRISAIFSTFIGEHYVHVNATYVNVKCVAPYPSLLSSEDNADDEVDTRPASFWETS
Sequence of Serine/threonine-protein kinase pim-2 (Homo sapiens) (Q9P1W9 whole entry, looked up): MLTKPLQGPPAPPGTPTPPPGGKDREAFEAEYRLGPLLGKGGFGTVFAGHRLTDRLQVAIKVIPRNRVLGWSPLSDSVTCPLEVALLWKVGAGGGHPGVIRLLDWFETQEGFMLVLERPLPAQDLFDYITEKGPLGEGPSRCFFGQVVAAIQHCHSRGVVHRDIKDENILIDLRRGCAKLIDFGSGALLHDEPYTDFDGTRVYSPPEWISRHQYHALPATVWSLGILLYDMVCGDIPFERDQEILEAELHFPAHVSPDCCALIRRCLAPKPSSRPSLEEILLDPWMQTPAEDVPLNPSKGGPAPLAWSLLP
Sequence of D(2) dopamine receptor (Homo sapiens) (P14416 whole entry): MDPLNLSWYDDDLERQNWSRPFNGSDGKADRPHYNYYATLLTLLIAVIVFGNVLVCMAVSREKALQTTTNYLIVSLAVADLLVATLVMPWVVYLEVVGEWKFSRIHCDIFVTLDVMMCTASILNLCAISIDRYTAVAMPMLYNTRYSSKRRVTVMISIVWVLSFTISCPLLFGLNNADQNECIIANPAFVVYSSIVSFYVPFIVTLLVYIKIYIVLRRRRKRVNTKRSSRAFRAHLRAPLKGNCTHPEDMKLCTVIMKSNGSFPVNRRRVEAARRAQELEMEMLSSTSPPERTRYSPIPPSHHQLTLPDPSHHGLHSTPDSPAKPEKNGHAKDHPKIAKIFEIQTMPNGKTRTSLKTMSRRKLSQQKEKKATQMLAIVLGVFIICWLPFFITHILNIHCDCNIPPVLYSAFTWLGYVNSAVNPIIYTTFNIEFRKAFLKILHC

SMILES: CNC(=O)c1ccc(Nc2ncc(C(F)(F)F)c(NCc3nccnc3N(C)S(C)(=O)=O)n2)cc1 [DEFACTINIB]
- IC50 [1]: > 1000 nM
- inhibition ([1]; Compound concentration 1.0 uM): 58%
- inhibition [2]: 43%
- inhibition [3]: 27%
- inhibition [4]: 15%
- inhibition [5]: 94%
- inhibition [6]: 29%
- inhibition [7]: 0%
- inhibition [8]: 12%
- inhibition [9]: 50%
- IC50 [10]: 344 nM
- inhibition [11]: 72%
- inhibition [12]: 54%
- inhibition [13]: 8%
- inhibition [14]: 35%
- inhibition [15]: 39%
- inhibition [16]: 13%
- inhibition [17]: -6.06%
- inhibition [18]: 69%
- inhibition [19]: 18%

SMILES: CN(c1ccnc(CNc2nc(Nc3ccc4c(c3)CC(=O)N4)ncc2C(F)(F)F)n1)S(C)(=O)=O [PF-00911705]
- inhibition [20]: 0.76%
- inhibition [21]: 9.12%
- inhibition [22]: 0.19%
